Laboratory results from US20110136666A1, “CHEMICAL COMPOUNDS” (SYNGENTA CROP PROTECTION, INC., priority 2008, published 2011).

The compounds below were run on Solanum nigrum (SOLNI) (assay: Post-emergence biological efficacy, glasshouse pot test). Settings: 312 h, 250 g/ha, after 13 days, 100=total damage, 0=no damage, read-out: Percentage damage caused to weed species SOLNI.
Type: in vivo
Procedure: (§1) Seeds of Alopecurus myosuroides (ALOMY), Setaria faberi (SETFA), Echinochloa crus-galli (ECHCG), Solanum nigrum (SOLNI), Amaranthus retroflexus (AMARE) and Ipomea hederaceae (IPOHE) were sown in standard soil in pots. After cultivation for 8 days under controlled conditions in a glasshouse (at 24/16° C., day/night; 14 hours light; 65% humidity), the plants were sprayed with an aqueous spray solution derived from the formulation of the technical active ingredient in acetone/water (50:50) solution containing 0.5% Tween 20 (polyoxyethylene sorbitan monolaurate, CAS RN 9005-64-5) to give a final dose of 250 or 1000 g/ha of test compound.
(§2) The test plants were then grown on under controlled conditions in a glasshouse (at 24/16° C., day/night; 14 hours light; 65% humidity) and watered twice daily. After 13 days the test was evaluated (100=total damage to plant; 0=no damage to plant).

SMILES | pest or weed control at 250 g/ha [%]
COC(=O)c1nc(-c2cscc2C)nc(N)c1Cl [Compound 2-17, 4-Amino-5-chloro-6-methoxycarbonyl-2-(4-methylthiophen-3-yl)-pyrimidine] | 0
COC(=O)c1nc(-c2ccsc2Cl)nc(N)c1Cl [Compound 2-18, 4-Amino-5-chloro-2-(2-chlorothiophen-3-yl)-6-methoxycarbonyl pyrimidine] | 0

Same assay, conditions: 312 h, 1000 g/ha, after 13 days, 100=total damage, 0=no damage, read-out: Percentage damage caused to weed species SOLNI

SMILES | pest or weed control at 1000 g/ha [%]
Nc1nc(-c2ccc(Cl)s2)nc(C(=O)O)c1Cl [Compound 1-2, 4-amino-5-chloro-2-(5-chlorothiophen-2-yl)-pyrimidine-6-carboxylic acid] | 80

These compounds were tested on Amaranthus retroflexus (AMARE) in the same assay as above. Settings: 312 h, 250 g/ha, after 13 days, 100=total damage, 0=no damage, read-out: Percentage damage caused to weed species AMARE.
Type: in vivo
Procedure: as §1, §2

SMILES | pest or weed control at 250 g/ha [%]
COC(=O)c1nc(-c2cscc2C)nc(N)c1Cl [Compound 2-17, 4-Amino-5-chloro-6-methoxycarbonyl-2-(4-methylthiophen-3-yl)-pyrimidine] | 0
COC(=O)c1nc(-c2ccsc2Cl)nc(N)c1Cl [Compound 2-18, 4-Amino-5-chloro-2-(2-chlorothiophen-3-yl)-6-methoxycarbonyl pyrimidine] | 20

Same assay, conditions: 312 h, 1000 g/ha, after 13 days, 100=total damage, 0=no damage, read-out: Percentage damage caused to weed species AMARE

SMILES | pest or weed control at 1000 g/ha [%]
Nc1nc(-c2ccc(Cl)s2)nc(C(=O)O)c1Cl [Compound 1-2, 4-amino-5-chloro-2-(5-chlorothiophen-2-yl)-pyrimidine-6-carboxylic acid] | 100

What follows are compounds tested on Alopecurus myosuroides (ALOMY) in the same assay as above. Settings: 312 h, 250 g/ha, after 13 days, 100=total damage, 0=no damage, read-out: Percentage damage caused to weed species ALOMY.
Type: in vivo
Procedure: as §1, §2

SMILES | pest or weed control at 250 g/ha [%]
COC(=O)c1nc(-c2cscc2C)nc(N)c1Cl [Compound 2-17, 4-Amino-5-chloro-6-methoxycarbonyl-2-(4-methylthiophen-3-yl)-pyrimidine] | 0
COC(=O)c1nc(-c2ccsc2Cl)nc(N)c1Cl [Compound 2-18, 4-Amino-5-chloro-2-(2-chlorothiophen-3-yl)-6-methoxycarbonyl pyrimidine] | 10

Same assay, conditions: 312 h, 1000 g/ha, after 13 days, 100=total damage, 0=no damage, read-out: Percentage damage caused to weed species ALOMY

SMILES | pest or weed control at 1000 g/ha [%]
Nc1nc(-c2ccc(Cl)s2)nc(C(=O)O)c1Cl [Compound 1-2, 4-amino-5-chloro-2-(5-chlorothiophen-2-yl)-pyrimidine-6-carboxylic acid] | 10

These compounds were tested on Echinochloa crus-galli (ECHCG) in the same assay as above. Settings: 312 h, 250 g/ha, after 13 days, 100=total damage, 0=no damage, read-out: Percentage damage caused to weed species ECHCG.
Type: in vivo
Procedure: as §1, §2

SMILES | pest or weed control at 250 g/ha [%]
COC(=O)c1nc(-c2cscc2C)nc(N)c1Cl [Compound 2-17, 4-Amino-5-chloro-6-methoxycarbonyl-2-(4-methylthiophen-3-yl)-pyrimidine] | 0
COC(=O)c1nc(-c2ccsc2Cl)nc(N)c1Cl [Compound 2-18, 4-Amino-5-chloro-2-(2-chlorothiophen-3-yl)-6-methoxycarbonyl pyrimidine] | 10

Same assay, conditions: 312 h, 1000 g/ha, after 13 days, 100=total damage, 0=no damage, read-out: Percentage damage caused to weed species ECHCG

SMILES | pest or weed control at 1000 g/ha [%]
Nc1nc(-c2ccc(Cl)s2)nc(C(=O)O)c1Cl [Compound 1-2, 4-amino-5-chloro-2-(5-chlorothiophen-2-yl)-pyrimidine-6-carboxylic acid] | 20

Each compound was assayed on Setaria faberi (SETFA) in the same assay as above. Settings: 312 h, 250 g/ha, after 13 days, 100=total damage, 0=no damage, read-out: Percentage damage caused to weed species SETFA.
Type: in vivo
Procedure: as §1, §2

SMILES | pest or weed control at 250 g/ha [%]
COC(=O)c1nc(-c2cscc2C)nc(N)c1Cl [Compound 2-17, 4-Amino-5-chloro-6-methoxycarbonyl-2-(4-methylthiophen-3-yl)-pyrimidine] | 0
COC(=O)c1nc(-c2ccsc2Cl)nc(N)c1Cl [Compound 2-18, 4-Amino-5-chloro-2-(2-chlorothiophen-3-yl)-6-methoxycarbonyl pyrimidine] | 10

Same assay, conditions: 312 h, 1000 g/ha, after 13 days, 100=total damage, 0=no damage, read-out: Percentage damage caused to weed species SETFA

SMILES | pest or weed control at 1000 g/ha [%]
Nc1nc(-c2ccc(Cl)s2)nc(C(=O)O)c1Cl [Compound 1-2, 4-amino-5-chloro-2-(5-chlorothiophen-2-yl)-pyrimidine-6-carboxylic acid] | 50

What follows are compounds tested on Ipomea hederaceae (IPOHE) in the same assay as above. Settings: Ipomoea hederacea, 312 h, 250 g/ha, after 13 days, 100=total damage, 0=no damage, read-out: Percentage damage caused to weed species IPONE.
Type: in vivo
Procedure: as §1, §2

SMILES | pest or weed control at 250 g/ha [%]
COC(=O)c1nc(-c2cscc2C)nc(N)c1Cl [Compound 2-17, 4-Amino-5-chloro-6-methoxycarbonyl-2-(4-methylthiophen-3-yl)-pyrimidine] | 0
COC(=O)c1nc(-c2ccsc2Cl)nc(N)c1Cl [Compound 2-18, 4-Amino-5-chloro-2-(2-chlorothiophen-3-yl)-6-methoxycarbonyl pyrimidine] | 40

Same assay, conditions: Ipomoea hederacea, 312 h, 1000 g/ha, after 13 days, 100=total damage, 0=no damage, read-out: Percentage damage caused to weed species IPONE

SMILES | pest or weed control at 1000 g/ha [%]
Nc1nc(-c2ccc(Cl)s2)nc(C(=O)O)c1Cl [Compound 1-2, 4-amino-5-chloro-2-(5-chlorothiophen-2-yl)-pyrimidine-6-carboxylic acid] | 60

What follows are compounds tested on Solanum nigrum (SOLNI) (assay: Pre-emergence biological efficacy, glasshouse pot test). Settings: 312 h, 250 g/ha, after 13 days, 100=total damage, 0=no damage, read-out: Percentage damage caused to weed species SOLNI.
Type: in vivo
Procedure: as §1, with “one day” for “8 days”
(§3) The test plants were then grown under controlled conditions in the glasshouse (at 24/16° C., day/night; 14 hours light; 65% humidity) and watered twice daily. After 13 days the test was evaluated (100=total damage to plant; 0=no damage to plant).

SMILES | pest or weed control at 250 g/ha [%]
COC(=O)c1nc(-c2cscc2C)nc(N)c1Cl [Compound 2-17, 4-Amino-5-chloro-6-methoxycarbonyl-2-(4-methylthiophen-3-yl)-pyrimidine] | 0
COC(=O)c1nc(-c2ccsc2Cl)nc(N)c1Cl [Compound 2-18, 4-Amino-5-chloro-2-(2-chlorothiophen-3-yl)-6-methoxycarbonyl pyrimidine] | 0

Same assay, conditions: 312 h, 1000 g/ha, after 13 days, 100=total damage, 0=no damage, read-out: Percentage damage caused to weed species SOLNI

SMILES | pest or weed control at 1000 g/ha [%]
Nc1nc(-c2ccc(Cl)s2)nc(C(=O)O)c1Cl [Compound 1-2, 4-amino-5-chloro-2-(5-chlorothiophen-2-yl)-pyrimidine-6-carboxylic acid] | 30

What follows are compounds tested on Amaranthus retroflexus (AMARE) in the same assay as above. Settings: 312 h, 250 g/ha, after 13 days, 100=total damage, 0=no damage, read-out: Percentage damage caused to weed species AMARE.
Type: in vivo
Procedure: as §1, with “one day” for “8 days”
as §3

SMILES | pest or weed control at 250 g/ha [%]
COC(=O)c1nc(-c2cscc2C)nc(N)c1Cl [Compound 2-17, 4-Amino-5-chloro-6-methoxycarbonyl-2-(4-methylthiophen-3-yl)-pyrimidine] | 50
COC(=O)c1nc(-c2ccsc2Cl)nc(N)c1Cl [Compound 2-18, 4-Amino-5-chloro-2-(2-chlorothiophen-3-yl)-6-methoxycarbonyl pyrimidine] | 0

Same assay, conditions: 312 h, 1000 g/ha, after 13 days, 100=total damage, 0=no damage, read-out: Percentage damage caused to weed species AMARE

SMILES | pest or weed control at 1000 g/ha [%]
Nc1nc(-c2ccc(Cl)s2)nc(C(=O)O)c1Cl [Compound 1-2, 4-amino-5-chloro-2-(5-chlorothiophen-2-yl)-pyrimidine-6-carboxylic acid] | 100

Each compound was assayed on Alopecurus myosuroides (ALOMY) in the same assay as above. Settings: 312 h, 250 g/ha, after 13 days, 100=total damage, 0=no damage, read-out: Percentage damage caused to weed species ALOMY.
Type: in vivo
Procedure: as §1, with “one day” for “8 days”
as §3

SMILES | pest or weed control at 250 g/ha [%]
COC(=O)c1nc(-c2cscc2C)nc(N)c1Cl [Compound 2-17, 4-Amino-5-chloro-6-methoxycarbonyl-2-(4-methylthiophen-3-yl)-pyrimidine] | 0
COC(=O)c1nc(-c2ccsc2Cl)nc(N)c1Cl [Compound 2-18, 4-Amino-5-chloro-2-(2-chlorothiophen-3-yl)-6-methoxycarbonyl pyrimidine] | 0

Same assay, conditions: 312 h, 1000 g/ha, after 13 days, 100=total damage, 0=no damage, read-out: Percentage damage caused to weed species ALOMY

SMILES | pest or weed control at 1000 g/ha [%]
Nc1nc(-c2ccc(Cl)s2)nc(C(=O)O)c1Cl [Compound 1-2, 4-amino-5-chloro-2-(5-chlorothiophen-2-yl)-pyrimidine-6-carboxylic acid] | 0

What follows are compounds tested on Echinochloa crus-galli (ECHCG) in the same assay as above. Settings: 312 h, 250 g/ha, after 13 days, 100=total damage, 0=no damage, read-out: Percentage damage caused to weed species ECHCG.
Type: in vivo
Procedure: as §1, with “one day” for “8 days”
as §3

SMILES | pest or weed control at 250 g/ha [%]
COC(=O)c1nc(-c2cscc2C)nc(N)c1Cl [Compound 2-17, 4-Amino-5-chloro-6-methoxycarbonyl-2-(4-methylthiophen-3-yl)-pyrimidine] | 0
COC(=O)c1nc(-c2ccsc2Cl)nc(N)c1Cl [Compound 2-18, 4-Amino-5-chloro-2-(2-chlorothiophen-3-yl)-6-methoxycarbonyl pyrimidine] | 0

Same assay, conditions: 312 h, 1000 g/ha, after 13 days, 100=total damage, 0=no damage, read-out: Percentage damage caused to weed species ECHCG

SMILES | pest or weed control at 1000 g/ha [%]
Nc1nc(-c2ccc(Cl)s2)nc(C(=O)O)c1Cl [Compound 1-2, 4-amino-5-chloro-2-(5-chlorothiophen-2-yl)-pyrimidine-6-carboxylic acid] | 0

What follows are compounds tested on Setaria faberi (SETFA) in the same assay as above. Settings: 312 h, 250 g/ha, after 13 days, 100=total damage, 0=no damage, read-out: Percentage damage caused to weed species SETFA.
Type: in vivo
Procedure: as §1, with “one day” for “8 days”
as §3

SMILES | pest or weed control at 250 g/ha [%]
COC(=O)c1nc(-c2cscc2C)nc(N)c1Cl [Compound 2-17, 4-Amino-5-chloro-6-methoxycarbonyl-2-(4-methylthiophen-3-yl)-pyrimidine] | 0
COC(=O)c1nc(-c2ccsc2Cl)nc(N)c1Cl [Compound 2-18, 4-Amino-5-chloro-2-(2-chlorothiophen-3-yl)-6-methoxycarbonyl pyrimidine] | 0

Same assay, conditions: 312 h, 1000 g/ha, after 13 days, 100=total damage, 0=no damage, read-out: Percentage damage caused to weed species SETFA

SMILES | pest or weed control at 1000 g/ha [%]
Nc1nc(-c2ccc(Cl)s2)nc(C(=O)O)c1Cl [Compound 1-2, 4-amino-5-chloro-2-(5-chlorothiophen-2-yl)-pyrimidine-6-carboxylic acid] | 0

These compounds were tested on Ipomea hederaceae (IPOHE) in the same assay as above. Settings: Ipomoea hederacea, 312 h, 250 g/ha, after 13 days, 100=total damage, 0=no damage, read-out: Percentage damage caused to weed species IPOHE.
Type: in vivo
Procedure: as §1, with “one day” for “8 days”
as §3

SMILES | pest or weed control at 250 g/ha [%]
COC(=O)c1nc(-c2cscc2C)nc(N)c1Cl [Compound 2-17, 4-Amino-5-chloro-6-methoxycarbonyl-2-(4-methylthiophen-3-yl)-pyrimidine] | 0
COC(=O)c1nc(-c2ccsc2Cl)nc(N)c1Cl [Compound 2-18, 4-Amino-5-chloro-2-(2-chlorothiophen-3-yl)-6-methoxycarbonyl pyrimidine] | 0

Same assay, conditions: Ipomoea hederacea, 312 h, 1000 g/ha, after 13 days, 100=total damage, 0=no damage, read-out: Percentage damage caused to weed species IPOHE

SMILES | pest or weed control at 1000 g/ha [%]
Nc1nc(-c2ccc(Cl)s2)nc(C(=O)O)c1Cl [Compound 1-2, 4-amino-5-chloro-2-(5-chlorothiophen-2-yl)-pyrimidine-6-carboxylic acid] | 0
